Experimental data: patent US20240263159A1, “GENE EDITING IN PRIMARY IMMUNE CELLS USING CELL PENETRATING CRISPR-CAS SYSTEM” (THE TRUSTEES OF THE UNIVERSITY OF PENNSYLVANIA, priority 2021, published 2024)

Tests used:
8.7 kb DNA fragment = assay: in vitro DNA cleavage assay; type: biochemical; details: Cas9 RNP with sgRNA, 37° C.
Description: Cas9 RNPs were assembled by incubating purified spCas9 or TAT-4×Myc NLS-Cas9 with sgRNA targeting a 8.7 kb DNA fragment, and incubated with the DNA fragment for 1, 5, 10, and 15 min at 37° C. The reaction was stopped and the DNA products were separated on a 0.8% agarose gel. Uncut band (˜8.7 kb) and two cleaved bands (˜2.7 kb and 6 kb) are shown on the gel.
TAT-4×Myc NLS-Cas9 expression construct was created by replacing the 4×SV40 NLS (PKKKRKV (SEQ ID NO: 1423)) at the N-terminus of Cas9 (Staahl et al., (2017) Nat Biotechnol 35, 431-434) with 4×Myc NLS ([…] (SEQ ID NO: 1)) with linker -G-G-S- between Myc NLS. The sequence of the TAT cell penetrating peptide ([…] (SEQ ID NO: 2)), derived from the trans-activating transcriptional activator (Tat) from HIV-1 (Frankel and Pabo, 1988; Green and Loewenstein, 1988), was added to the N-terminus, and TAT-4×Myc NLS-Cas9 was cloned into a bacterial recombinant protein expression vector (Gootenberg et al., 2017) with a Twin-Strep and SUMO tag (FIG. 1A). Next, TAT-4×Myc NLS-Cas9 protein was purified by Strep-Tactin affinity chromatography followed by on-column SUMO protease digestion, ion exchange chromatography (IEC), and size exclusion chromatography (SEC) (FIG. 1B) (Gootenberg et al., (2017) Science 356, 438-442).

CD45.2 = assay: in vitro editing in mouse primary CD8 T cells, CD45.2 knockdown by flow cytometry; type: cell-based; details: CD45.2 sgRNA_1, 5 μM TAT-4×Myc NLS-Cas9, 75 μM dTAT-HA2, Day 4
Description: FIG. 3C: An example of flow plots showing the percentage of sgRNA+Cas9+ for Rosa and CD45.2.
FIG. 3D: Target genes are knocked down during Days 1-5 in vitro culture as measured by flow cytometry.
RN2-Cas9 cells were infected with retrovirus expressing sgRNA and mCherry, and CD45.2 expression level was measured by flow cytometry after 3 days of infection. Both sgRNAs targeting CD45.2 efficiently knocked down CD45.2 compared to sgRNAs targeting Rosa26 (FIG. 3A). It was next tested whether TAT-4×Myc Cas9 can edit the genome in mouse primary CD8 T cells. Briefly, on Day −2, primary CD8 T cells were isolated from 3-month-old mouse spleen and activated by CD3, […], and IL-2 for 24 hours. On Day −1, the activated cells were infected with retrovirus expressing sgRNA and mCherry for 24 hours. Cells were then treated with 5 μM TAT-4×Myc NLS-Cas9 (with GFP tag) and 75 μM dTAT-HA2, and incubated in RPMI 1640 supplied with 1% FBS and 50 μM 2-mercaptoethanol in a 37° C. incubator for 40 min. […] CD45.2 expression level was measured by flow cytometry from Day 1 to Day 5. […] The stability of TAT-4×Myc NLS-Cas9 was evaluated in the cells by measuring normalized Mean Fluorescence Intensity (MFI) of GFP.

CD90.2 = assay: in vitro editing in mouse primary CD8 T cells, CD90.2 knockdown by flow cytometry; type: cell-based
PD-1 = details: mouse, in vivo
[1] = tested on: EL4 mCherry reporter cell line; assay: EL4 mCherry reporter gene editing, loss of mCherry by flow cytometry; details: 5 μM TAT-4×Myc NLS-Cas9, 75 μM dTAT-HA2, 30 min, no FBS
Thy1 and Ptprc genes = assay: Cas9-PAGE with retroviral sgRNA in murine primary CD8 T cells ex vivo (flow cytometry, TIDE assay); type: cell-based; details: sgThy1_IG1 or sgNeg, various concentrations of TH, 5 μM Cas9-T6N^CPP, 30 min
Description: FIG. 12A: A schematic of the experimental workflow of evaluating the PAGE system in murine primary CD8 T cells ex vivo. Murine primary T cells were activated with anti-CD3, anti-CD28 and IL-2, followed by retroviral transduction with a sgRNA expression vector linked with mCherry fluorescent marker. […] Gene editing was evaluated at various time points by flow cytometry against indicated gene products or via direct sanger sequencing of the targeted genomic regions. […] Cells were transduced with either sgThy1_IG1 or sgNeg, followed by 30 min incubation with various concentrations of TH and 5 μM Cas9-T6N^CPP. Flow cytometry analysis was performed at the indicated days post-treatment. […] FIG. 12C: Mean Fluorescent Intensity (MFI) quantification of the flow cytometry analysis at 4 days post-treatment in FIG. 12B (left panel). […] FIG. 12E: Quantification of live cell recovery of CD8 T cells treated with an increased concentration of TH. […] Genomic DNA was isolated at day 6 post-treatment of PAGE, sanger sequenced, and followed by quantification via an online TIDE analysis tool. sgThy1_IG1, sgThy1_IG2, sgThy1_IG3, sgRNAs targeting the Immunoglobulin domain of Thy1 gene; sgPtprc_CAT1 and sgPtprc_TM1, sgRNAs targeting either the catalytic domain or transmembrane domain of Ptprc gene; sgNeg, an sgRNA targeting Ano9 gene was used as a negative control here. […]

Substance | DNA cleavage (8.7 kb DNA fragment) | percentage of CD45.2 knockdown cells, maximum (CD45.2) | percentage of CD90.2 knockdown cells, maximum (CD90.2; CD90.2 sgRNA_2, 5 μM TAT-4×Myc NLS-Cas9, 75 μM dTAT-HA2, Day 3) | percentage of CD90.2 knockdown cells, maximum (CD90.2; CD90.2 sgRNA_3, 5 μM TAT-4×Myc NLS-Cas9, 75 μM dTAT-HA2, Day 3) | PD-1 expression (PD-1) | percentage of sgRNA^+P14 T cell population and total number of sgRNA^+P14 T cells (PD-1) | percentage of mCherry^− cells [1] | Cas9-T6N^CPP gene editing in murine primary CD8 T cells (Thy1 and Ptprc genes)
TAT-4×NLS^MYC-Cas9-2×NLS^SV40-sfGFP [TAT-4×Myc NLS-Cas9] | efficiently cleaved DNA | ~60% | ~90% | ~70% | ~20% | increased | 92.9% | 
dTAT-HA2 [TH] |  |  |  |  |  |  |  | promoted Cas9-T6N^CPP gene editing
